Results taken from patent US4308267A, “7-[2-Alkoxyimino-2-(amino-thiazole)acetami do]-3-[1-(sulfaminoalkly)tetrazolthiomethyl]cephalosporins” (SmithKline Corporation, priority 1980, dated 1981).
Values after ≈ are worked out from the molar mass of the structure shown. Counter-ions that a name gives are not always drawn.

Experiments:
[1] = tested on: Staph. aureus HH 127; assay: minimum inhibitory concentration, in vitro screen (Table I, strain 1); assay type: cell-based; conditions: Staphylococcus aureus, HH127; Staph. aureus HH 127, lactamase producer
Description: (§1) The compounds of this invention are useful as broad spectrum antibacterial agents against both Gram-positive and Gram-negative organisms. […] Data for 7-[syn-2-methoxyimino-2-(2-amino-4-thiazolyl)acetamido]cephalosporanic acid (cefatoxime) are also included for comparison.

[2] = tested on: Proteus morgani 179; assay: minimum inhibitory concentration, in vitro screen (Table I, strain 13); assay type: cell-based
Description: as §1

[3] = tested on: P. mirabilis PM-444; assay: minimum inhibitory concentration, in vitro screen (Table I, strain 10); assay type: cell-based; conditions: Proteus mirabilis, PM444
Description: as §1

[4] = tested on: Strep. faecalis HH 34358; assay: minimum inhibitory concentration, in vitro screen (Table I, strain 4); assay type: cell-based; conditions: Enterococcus faecalis, HH34358
Description: as §1

[5] = tested on: Pseudo. aeruginosa HH 63; assay: minimum inhibitory concentration, in vitro screen (Table I, strain 11); assay type: cell-based; conditions: Pseudomonas aeruginosa, HH63
Description: as §1

[6] = in vitro; assay type: in vitro ADME; conditions: human serum proteins; read-out: Binding to Human Serum Proteins (converted)
[7] = tested on: Enterobacter cloacae 921; assay: minimum inhibitory concentration, in vitro screen (Table I, strain 15); assay type: cell-based
Description: as §1

[8] = tested on: Staph. aureus 671; assay: minimum inhibitory concentration, in vitro screen (Table I, strain 2); assay type: cell-based; conditions: Staphylococcus aureus; Staph. aureus 671, lactamase producer
Description: as §1

[9] = pharmacokinetics in mouse (Table 3); assay type: in vivo; conditions: for half-life: in vivo; for half-life / concentration at 2 h / Cmax / dose excreted: mouse, 20 mg/kg; for concentration at 2 h / Cmax: serum; for concentration at 2 h: read-out: Serum Level at 2 hrs.; for Cmax: read-out: Peak Serum Level; for dose excreted: urine, read-out: Urinary Recovery
[10] = tested on: E. coli SK&F 12140; assay: minimum inhibitory concentration, in vitro screen (Table I, strain 5); assay type: cell-based; conditions: Escherichia coli
Description: as §1

[11] = tested on: E. coli 804; assay: minimum inhibitory concentration, in vitro screen (Table I, strain 6); assay type: cell-based; conditions: Escherichia coli; E. coli 804, lactamase producer
Description: as §1

[12] = tested on: Pseudo. aeruginosa 647; assay: minimum inhibitory concentration, in vitro screen (Table I, strain 16); assay type: cell-based; conditions: Pseudomonas aeruginosa
Description: as §1

[13] = tested on: Kleb. pneumoniae 982; assay: minimum inhibitory concentration, in vitro screen (Table I, strain 9); assay type: cell-based; conditions: Klebsiella pneumoniae; Kleb. pneumoniae 982, lactamase producer
Description: as §1

[14] = tested on: Kleb. pneumoniae SK&F 1200; assay: minimum inhibitory concentration, in vitro screen (Table I, strain 8); assay type: cell-based; conditions: Klebsiella pneumoniae
Description: as §1

[15] = tested on: Kleb. pneumoniae SK&F 4200; assay: minimum inhibitory concentration, in vitro screen (Table I, strain 7); assay type: cell-based; conditions: Klebsiella pneumoniae
Description: as §1

[16] = tested on: E. coli 12140; assay: standard in vivo antibacterial test in mice, ED50 (Table 2); conditions: Escherichia coli
Description: (§2) Table 2 sets forth ED50 's for Compound A, cefamandole and cefatoxime.

[17] = tested on: S. aureus HH 127; assay: as above; conditions: Staphylococcus aureus
Description: as §2

[18] = tested on: Serratia marcescens ATCC 13880; assay: minimum inhibitory concentration, in vitro screen (Table I, strain 12); assay type: cell-based; conditions: ATCC13880
Description: as §1

[19] = tested on: Enterobacter aerogenes ATCC 13048; assay: minimum inhibitory concentration, in vitro screen (Table I, strain 14); assay type: cell-based; conditions: Klebsiella aerogenes, ATCC13048
Description: as §1

[20] = tested on: Staph. aureus 674; assay: minimum inhibitory concentration, in vitro screen (Table I, strain 3); assay type: cell-based; conditions: Staphylococcus aureus
Description: as §1

[21] = tested on: Gram-negative bacteria including those which are β-lactamase producers; assay: standard in vitro screens (general statement); assay type: cell-based; conditions: especially against Gram-negative bacteria including β-lactamase producers
Description: as §1

[22] = tested on: bacterial infections; assay: standard in vivo tests in mice (general statement)
Description: as §2

Row | Compound | MIC [1] [µg/mL] | MIC [2] [µg/mL] | MIC [3] [µg/mL] | MIC [4] [µg/mL] | MIC [5] [µg/mL] | fraction unbound [6] | MIC [7] [µg/mL] | MIC [8] [µg/mL] | half-life [9] [min] | concentration at 2 h [9] [ng/mL] | Cmax [9] [ng/mL] | dose excreted [9] [%] | MIC [10] [µg/mL] | MIC [11] [µg/mL] | MIC [12] [µg/mL] | MIC [13] [µg/mL] | MIC [14] [µg/mL] | MIC [15] [µg/mL] | MIC [18] [µg/mL] | MIC [19] [µg/mL] | other results
1 | Cn1nnnc1SCC1=C(C(=O)O)N2C(=O)[C@@H](NC(=O)[C@H](O)c3ccccc3)[C@H]2SC1 [Cefamandole] | 1.6 (≈ 3.46 µM) | 1.6 (≈ 3.46 µM) | 0.4 (≈ 0.865 µM) | 25 (≈ 54.1 µM) | > 100 | 0.39 | 3.1 (≈ 6.7 µM) | 6.3 (≈ 13.6 µM) | 12 | 1000 | 34000 | 45 | 0.8 (≈ 1.73 µM) | > 100 | > 100 | > 100 | 0.4 (≈ 0.865 µM) | 1.6 (≈ 3.46 µM) | 12.5 (≈ 27 µM) | 1.6 (≈ 3.46 µM) | ED50 ([16]; * representative value): 0.9 mg/kg; ED50 ([17]; HH127, * representative value): 2.2 mg/kg; MIC [20]: ≤ 0.1 µg/mL
2 | CO/N=C(\C(=O)N[C@@H]1C(=O)N2C(C(=O)O)=C(COC(C)=O)CS[C@H]12)c1csc(N)n1 [Cefatoxime, 7-[syn-2-methoxyimino-2-(2-amino-4-thiazolyl)acetamido]cephalosporanic acid] | 1.6 (≈ 3.51 µM) | ≤ 0.1 | ≤ 0.1 | > 100 | 6.3 (≈ 13.8 µM) | 0.61 | ≤ 0.1 | 0.4 (≈ 0.878 µM) | 27 | < 1000 | 25000 | 13 | ≤ 0.1 | 0.2 (≈ 0.439 µM) | 3.1 (≈ 6.81 µM) | 0.2 (≈ 0.439 µM) | ≤ 0.1 | ≤ 0.1 | ≤ 0.1 | ≤ 0.1 | ED50 [16]: < 0.2 mg/kg; ED50 ([17]; HH127): 10.5 mg/kg; MIC [20]: 0.8 µg/mL (≈ 1.76 µM)
3 | CO/N=C(\C(=O)N[C@@H]1C(=O)N2C(C(=O)O)=C(CSc3nnnn3CCNS(=O)(=O)O)CS[C@H]12)c1csc(N)n1 [Compound A, 7-[syn-2-methoxyimino-2-(2-amino-4-thiazolyl)acetamido]-3-[1-(2-sulfaminoethyl)tetrazo-5-ylthiomethyl]-3-cephem-4-carboxylic acid disodium salt] | 6.3 | ≤ 0.1 | ≤ 0.1 | > 100 | 12.5 | 0.3 | 0.2 | 3.1 | 114 | 52000 | 78000 | 24 | ≤ 0.1 | 0.4 | 6.3 | 1.6 | ≤ 0.1 | ≤ 0.1 | ≤ 0.1 | 0.2 | activity in standard in vitro screens [21]: high activity; peak serum levels, serum levels at two hours and half-life ([9]; compared to cefatoxime and cefamandole): better for Compound A compared to cefatoxime and cefamandole; pharmacokinetic properties ([9]; general statement): unexpected improved pharmacokinetic properties; antibacterial activity in standard in vivo tests [22]: high antibacterial activity; ED50 [16]: 0.4 mg/kg; ED50 ([17]; HH127): 21 mg/kg; MIC [20]: 6.3 µg/mL
